Assay results as given in US9371342B2, “Isoprene oligomer, polyisoprene, processes for producing these materials, rubber composition, and pneumatic tire” (priority 2010, dated 2016).

Experiments:
[1] = molecular target: T1, Bacillus stearothermophilus-derived farnesyl diphosphate synthase (Geobacillus stearothermophilus, UniProt Q08291); assay: Relative activity of farnesyl diphosphate synthase on initiating substrates; type: biochemical; conditions: activity of the enzyme on geranyl diphosphate as 100; 12.5 μM initiating substrate, pH 8.5, 1 hour, 55° C.
T1 construct: made in house; host or cells: E. coli BL21 (DE3)
T1 sequence (Q08291 whole entry): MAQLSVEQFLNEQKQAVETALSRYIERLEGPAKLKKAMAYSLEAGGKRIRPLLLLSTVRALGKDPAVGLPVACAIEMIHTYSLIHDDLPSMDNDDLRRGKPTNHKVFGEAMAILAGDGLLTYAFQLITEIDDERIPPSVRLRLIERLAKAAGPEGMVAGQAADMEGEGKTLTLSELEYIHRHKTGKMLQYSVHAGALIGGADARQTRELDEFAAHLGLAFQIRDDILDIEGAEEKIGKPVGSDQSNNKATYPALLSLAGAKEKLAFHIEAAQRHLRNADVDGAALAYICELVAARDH
Method: Reaction was performed under conditions shown below using the obtained Bacillus stearothermophilus-derived farnesyl diphosphate synthase and each of the initiating substrates 1 to 4, the compound represented by the formula (F), the compound represented by the formula (I), the compound represented by the formula (QO), and geranyl diphosphate (GPP) whose structure is shown below. The results were indicated in Table 11 by the relative activity of the enzyme on the initiating substrates 1 to 4, the compound represented by the formula (F), the compound represented by the formula (I), and the compound represented by the formula (Q) with the activity of the enzyme on geranyl diphosphate as 100.
(§1) After the reaction, liquid scintillation counting and TLC quantification were performed to measure the activity of the enzyme on each initiating substrate.

[2] = molecular target: T2, Sulfolobus acidocaldarius-derived geranylgeranyl diphosphate synthase (Sulfolobus acidocaldarius, UniProt P39464); assay: Relative activity of geranylgeranyl diphosphate synthase on initiating substrates; type: biochemical; conditions: 12.5 μM initiating substrate, pH 5.8, 1 hour, 55° C.
T2 construct: made in house; host or cells: E. coli BL21 (DE3)
T2 sequence (P39464 whole entry): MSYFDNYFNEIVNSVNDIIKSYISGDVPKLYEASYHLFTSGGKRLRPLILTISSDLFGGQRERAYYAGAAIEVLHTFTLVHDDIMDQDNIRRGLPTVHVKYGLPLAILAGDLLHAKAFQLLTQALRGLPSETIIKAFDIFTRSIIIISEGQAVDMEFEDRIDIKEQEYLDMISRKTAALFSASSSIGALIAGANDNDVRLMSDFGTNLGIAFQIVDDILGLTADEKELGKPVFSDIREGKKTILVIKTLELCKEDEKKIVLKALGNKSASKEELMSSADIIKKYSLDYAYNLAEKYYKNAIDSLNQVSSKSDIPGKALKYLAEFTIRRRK
Method: Likewise, reaction was performed under conditions shown below using Sulfolobus acidocaldarius-derived geranylgeranyl diphosphate synthase and each of the initiating substrates 1 to 4, the compound represented by the formula (B), the compound represented by the formula (C), the compound represented by the formula (G), the compound represented by the formula (K), the compound represented by the formula (F), the compound represented by the formula (I), the compound represented by the formula (Q), farnesyl diphosphate (FPP), and geranyl diphosphate (GPP). The results were indicated in Tables 12 and 13 by the relative activity of the enzyme on the initiating substrates 1 to 4, the compound represented by the formula (B), the compound represented by the formula (C), the compound represented by the formula (G), the compound represented by the formula (K), the compound represented by the formula (F), the compound represented by the formula (I), and the compound represented by the formula (QO) with the activity of the enzyme on farnesyl diphosphate or geranyl diphosphate as 100.
as §1

[3] = molecular target: T3, Micrococcus luteus B-P 26-derived undecaprenyl diphosphate synthase (wild-type enzyme) (Micrococcus luteus, UniProt O82827); assay: Relative activity of wild-type undecaprenyl diphosphate synthase on initiating substrates; type: biochemical; conditions: activity of the enzyme on farnesyl diphosphate as 100; 12.5 μM initiating substrate, pH 7.5, 1 hour, 37° C.
T3 construct: made in house; host or cells: E. coli; plasmid pET22b/MLU-UPS
T3 sequence (O82827 whole entry): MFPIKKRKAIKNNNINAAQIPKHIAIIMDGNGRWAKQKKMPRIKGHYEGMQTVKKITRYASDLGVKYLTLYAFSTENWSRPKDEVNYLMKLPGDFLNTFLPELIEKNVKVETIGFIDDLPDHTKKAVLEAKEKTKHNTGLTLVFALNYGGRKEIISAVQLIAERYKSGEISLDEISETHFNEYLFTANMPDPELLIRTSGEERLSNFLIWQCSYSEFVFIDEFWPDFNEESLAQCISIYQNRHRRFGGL
Method: (§2) Reaction was performed under conditions shown below using each of the initiating substrates prepared in Production Examples 1 to 11 or farnesyl diphosphate. The activity of each variant enzyme on each initiating substrate was indicated by index with the activity of the wild-type enzyme (Micrococcus luteus B-P 26-derived undecaprenyl diphosphate synthase) as 100.
(§3) After the reaction, liquid scintillation counting and TLC quantification were performed to measure the activity of each enzyme.
Next, reaction was performed under conditions shown below using Micrococcus luteus B-P 26-derived undecaprenyl diphosphate synthase as an enzyme and each of the initiating substrates 1 to 4, the compound represented by the formula (B), the compound represented by the formula (C), the compound represented by the formula (G), the compound represented by the formula (K), and farnesyl diphosphate (FPP). The results were indicated in Table 10 by the relative activity of the enzyme on the initiating substrates 1 to 4, the compound represented by the formula (B), the compound represented by the formula (C), the compound represented by the formula (G), and the compound represented by the formula (K) with the activity of the enzyme on farnesyl diphosphate as 100.
as §1

[4] = molecular target: T4, variant enzyme F95A of undecaprenyl diphosphate synthase (Micrococcus luteus, UniProt O82827, F95A); assay: Relative activity of variant enzyme F95A on initiating substrates; type: biochemical, Micrococcus luteus B-P 26; conditions: index, activity of wild-type enzyme on same initiating substrate as 100; 12.5 μM initiating substrate, 1 hour, 37° C.
T4 construct: made in house; host or cells: E. coli; site-directed mutagenesis of pET22b/MLU-UPS
T4 sequence (O82827 whole entry F95A): as the sequence (O82827 whole entry) above, with F95A counted along it
Method: as §2, §3

[5] = molecular target: T5, variant enzyme N77A of undecaprenyl diphosphate synthase (Micrococcus luteus, UniProt O82827, N77A); assay: Relative activity of variant enzyme N77A on initiating substrates; type: biochemical, Micrococcus luteus B-P 26; conditions: index, activity of wild-type enzyme on same initiating substrate as 100; 12.5 μM initiating substrate, 1 hour, 37° C.
T5 construct: made in house; host or cells: E. coli; site-directed mutagenesis of pET22b/MLU-UPS
T5 sequence (O82827 whole entry N77A): as the sequence (O82827 whole entry) above, with N77A counted along it
Method: as §2, §3

[6] = molecular target: T6, variant enzyme F95W of undecaprenyl diphosphate synthase (Micrococcus luteus, UniProt O82827, F95W); assay: Relative activity of variant enzyme F95W on initiating substrates; type: biochemical, Micrococcus luteus B-P 26; conditions: index, activity of wild-type enzyme on same initiating substrate as 100; 12.5 μM initiating substrate, 1 hour, 37° C.
T6 construct: made in house; host or cells: E. coli; site-directed mutagenesis of pET22b/MLU-UPS
T6 sequence (O82827 whole entry F95W): as the sequence (O82827 whole entry) above, with F95W counted along it
Method: as §2, §3

[7] = molecular target: T7, variant enzyme L91G of undecaprenyl diphosphate synthase (Micrococcus luteus, UniProt O82827, L91G); assay: Relative activity of variant enzyme L91G on initiating substrates; type: biochemical, Micrococcus luteus B-P 26; conditions: index, activity of wild-type enzyme on same initiating substrate as 100; 12.5 μM initiating substrate, 1 hour, 37° C.
T7 construct: made in house; host or cells: E. coli; site-directed mutagenesis of pET22b/MLU-UPS
T7 sequence (O82827 whole entry L91G): as the sequence (O82827 whole entry) above, with L91G counted along it
Method: as §2, §3

[8] = molecular target: T8, variant enzyme N31A of undecaprenyl diphosphate synthase (Micrococcus luteus, UniProt O82827, N31A); assay: Relative activity of variant enzyme N31A on initiating substrates; type: biochemical, Micrococcus luteus B-P 26; conditions: index, activity of wild-type enzyme on same initiating substrate as 100; 12.5 μM initiating substrate, 1 hour, 37° C.
T8 construct: made in house; host or cells: E. coli; site-directed mutagenesis of pET22b/MLU-UPS
T8 sequence (O82827 whole entry N31A): as the sequence (O82827 whole entry) above, with N31A counted along it
Method: as §2, §3

[9] = molecular target: T9, variant enzyme L91D of undecaprenyl diphosphate synthase (Micrococcus luteus, UniProt O82827, L91D); assay: Relative activity of variant enzyme L91D on initiating substrates; type: biochemical, Micrococcus luteus B-P 26; conditions: index, activity of wild-type enzyme on same initiating substrate as 100; 12.5 μM initiating substrate, 1 hour, 37° C.
T9 construct: made in house; host or cells: E. coli; site-directed mutagenesis of pET22b/MLU-UPS
T9 sequence (O82827 whole entry L91D): as the sequence (O82827 whole entry) above, with L91D counted along it
Method: as §2, §3

[10] = molecular target: T10, variant enzyme L91K of undecaprenyl diphosphate synthase (Micrococcus luteus, UniProt O82827, L91K); assay: Relative activity of variant enzyme L91K on initiating substrates; type: biochemical, Micrococcus luteus B-P 26; conditions: index, activity of wild-type enzyme on same initiating substrate as 100; 12.5 μM initiating substrate, 1 hour, 37° C.
T10 construct: made in house; host or cells: E. coli; site-directed mutagenesis of pET22b/MLU-UPS
T10 sequence (O82827 whole entry L91K): as the sequence (O82827 whole entry) above, with L91K counted along it
Method: as §2, §3

[11] = molecular target: T11, variant enzyme L91N of undecaprenyl diphosphate synthase (Micrococcus luteus, UniProt O82827, L91N); assay: Relative activity of variant enzyme L91N on initiating substrates; type: biochemical, Micrococcus luteus B-P 26; conditions: index, activity of wild-type enzyme on same initiating substrate as 100; 12.5 μM initiating substrate, 1 hour, 37° C.
T11 construct: made in house; host or cells: E. coli; site-directed mutagenesis of pET22b/MLU-UPS
T11 sequence (O82827 whole entry L91N): as the sequence (O82827 whole entry) above, with L91N counted along it
Method: as §2, §3

[12] = molecular target: T12, variant enzyme N31Q of undecaprenyl diphosphate synthase (Micrococcus luteus, UniProt O82827, N31Q); assay: Relative activity of variant enzyme N31Q on initiating substrates; type: biochemical, Micrococcus luteus B-P 26; conditions: index, activity of wild-type enzyme on same initiating substrate as 100; 12.5 μM initiating substrate, 1 hour, 37° C.
T12 construct: made in house; host or cells: E. coli; site-directed mutagenesis of pET22b/MLU-UPS
T12 sequence (O82827 whole entry N31Q): as the sequence (O82827 whole entry) above, with N31Q counted along it
Method: as §2, §3

[13] = molecular target: T13, variant enzyme N77Q of undecaprenyl diphosphate synthase (Micrococcus luteus, UniProt O82827, N77Q); assay: Relative activity of variant enzyme N77Q on initiating substrates; type: biochemical, Micrococcus luteus B-P 26; conditions: index, activity of wild-type enzyme on same initiating substrate as 100; 12.5 μM initiating substrate, 1 hour, 37° C.
T13 construct: made in house; host or cells: E. coli; site-directed mutagenesis of pET22b/MLU-UPS
T13 sequence (O82827 whole entry N77Q): as the sequence (O82827 whole entry) above, with N77Q counted along it
Method: as §2, §3

[14] = activity of the enzyme on farnesyl diphosphate as 100
[15] = activity of the enzyme on geranyl diphosphate as 100

Molecule	Relative activity (%) [1] [%]	Relative activity (%) [2, 14] [%]	Relative activity (%) [2, 15] [%]	Relative activity (%) [3] [%]	Relative activity [4]	Relative activity [5]	Relative activity [6]	Relative activity [7]	Relative activity [8]	Relative activity [9]	Relative activity [10]	Relative activity [11]	Relative activity [12]	Relative activity [13]
CC(C)=CCC/C(C)=C/CC/C(C)=C/CC/C=C/COP(=O)(O)OP(=O)(O)O [Initiating substrate 4, 7,11,15-trimethyl-hexadeca-2E,6E,10E,14E-tetraenyl diphosphate]	0.7	1.4	0.8	5.9	–	–	–	–	–	–	–	–	–	–
CCCCC(OC)/C(C)=C/CC/C(C)=C/COP(=O)(O)OP(=O)(O)O (stereo not shown) [Compound of formula (B), 8-methoxy-3,7-dimethyl-dodeca-(2E,6E)-dienyl diphosphate]	–	70.6	–	68.4	128	319	140	149	116	231	156	–	–	–
CCCSC/C(C)=C/CC/C(C)=C/COP(=O)(O)OP(=O)(O)O [Compound of formula (M), 8-n-propylthio-3,7-dimethyl-octa-(2E,6E)-dienyl diphosphate]	–	–	–	–	–	127	–	–	149	123	112	139	101	–
C/C(=C\COP(=O)(O)OP(=O)(O)O)CC/C=C(\C)CO[Si](C)(C)C(C)(C)C [Compound of formula (P), 8-[(tert-butyldimethylsilyl)oxy]-3,7-dimethyl-octa-(2E,6E)-dienyl diphosphate]	–	–	–	–	104	–	130	104	–	112	–	–	–	–
CC[C@@H](O)CC/C(C)=C/CC/C(C)=C/COP(=O)(O)OP(=O)(O)O [Compound of formula (E), (10R)-hydroxy-3,7-dimethyl-dodeca-(2E,6E)-dienyl diphosphate]	–	–	–	–	120	396	114	170	222	320	163	271	210	194
CCC(O)CC/C(C)=C/CC/C(C)=C/COP(=O)(O)OP(=O)(O)O [Compound of formula (R), 10-hydroxy-3,7-dimethyl-dodeca-(2E,6E)-dienyl diphosphate]	–	–	–	–	140	254	121	110	200	230	165	137	146	156
C/C=C/COP(=O)(O)OP(=O)(O)O [Initiating substrate 1, 2E-butenyl diphosphate]	1.4	2.3	0.4	0.3	–	–	–	–	–	–	–	–	–	–
CCCCC(O)/C(C)=C/CC/C(C)=C/COP(=O)(O)OP(=O)(O)O (stereo not shown) [Compound of formula (C), 8-hydroxy-3,7-dimethyl-dodeca-(2E,6E)-dienyl diphosphate]	–	37.3	–	74.8	–	234	–	146	111	155	130	108	–	–
C/C(=C\COP(=O)(O)OP(=O)(O)O)CC/C=C(\C)COCc1ccccc1 [Compound of formula (N), 8-benzyloxy-3,7-dimethyl-octa-(2E,6E)-dienyl diphosphate]	–	–	–	–	132	112	147	–	–	–	–	–	–	133
CC[C@H](O)CC/C(C)=C/CC/C(C)=C/COP(=O)(O)OP(=O)(O)O [Compound of formula (D), (10S)-hydroxy-3,7-dimethyl-dodeca-(2E,6E)-dienyl diphosphate]	–	–	–	–	–	208	120	134	179	125	101	103	104	124
CCC(CC/C(C)=C/CC/C(C)=C/COP(=O)(O)OP(=O)(O)O)C(C)=O [Compound of formula (S), 10-acetyl-3,7-dimethyl-dodeca-(2E,6E)-dienyl diphosphate]	–	–	–	–	163	–	130	130	116	227	147	–	–	–
COCOC/C(C)=C/CC/C(C)=C/COP(=O)(O)OP(=O)(O)O [Compound of formula (H), 8-methoxymethoxy-3,7-dimethyl-octa-(2E,6E)-dienyl diphosphate]	–	–	–	–	–	162	–	–	152	–	–	–	110	–
7-acetyl-7-aza-3-methyl-dodeca-(2E)-dienyl diphosphate [Compound of formula (K)]	–	38.6	–	40.6	136	–	148	–	–	–	112	–	–	–
